Like-named read-outs stand apart in the source and are kept apart here. Where a SMILES comes first, the peptide text is derived from it. The star is where a group is joined. Cbz = O=C(OCc1ccccc1)*
Experiments:
[1] = test system: HIF-1α; type: cell-based, murine
[2] = test system: HIF-1α; test: Radiation-induced ODD-luc in 4T1 tumors in macrophage-depleted nude mice; type: in vivo; conditions: 4T1-ODD-luc tumors, carrageenan 2 mg i.p. repeated, 6 Gy
Procedure: Imaging luciferase activity. Luciferase expression/activity was detected and quantified as relative light units (RLUs) by using the Xenogen IVIS™ imaging system and associated LIVING IMAGE® software (Xenogen, Alameda, Calif., United States of America). […] For in vivo experiments, treated tumor-bearing mice received an i.p. injection of luciferin (150 mg/kg) during isofluorane anesthesia. Repeated images of luciferase expression/activity were acquired following manufacturer's specified procedures.
Animal experiments. Female NIH Swiss nude mice, C57BL/6 mice were purchased from the National Cancer Institute (NCI; Fredrick, Md., United States of America). Mice with a genetic disruption of the inducible nitric acid synthase gene (C57BL/6 iNOS^−/−) were obtained from the Jackson Laboratory (Bar Harbor, Me., United States of America). Female BALB/c mice were obtained from Charles River Laboratories (Raleigh, N.C., United States of America). Animals were maintained and cared for in accordance with the Duke University Institutional Animal Care and Use Committee guidelines. For tumor implantation, 4T1 tumors were grown in nude mice or in syngeneic BALB/c mice, and B16F10 melanoma in syngeneic C57BL/6 or iNOS^−/− mice. […]

[3] = test system: tumor vasculature; test: CD31 vessel staining / vascular density in tumors; type: in vivo, mice; conditions: 4T1 and B16F10 tumors excised on day 10
Procedure: Vessel staining was performed on tumor cryoslices by using the VECTASTAIN® ABC and the NOVARED™ kits from Vector Laboratories (Burlingame, Calif., United States of America), according to the manufacturer's protocol. The primary anti-CD31 antibody (Santa Cruz Biotechnology, Santa Cruz, Calif.) was labeled with a secondary biotinylated anti-rabbit antibody (Jackson ImmunoResearch Labs, Inc.). Slices were counterstained using Harris' hematoxilin. Vascular density was determined by counting CD31-positive structures in 5 random fields per tumor.

[4] = test system: constitutively expressed luciferase; test: CMV-luc control reporter in irradiated 4T1 tumors in nude mice; type: in vivo; conditions: 4T1-luc tumors, 6 Gy, with or without L-NAME
Excerpt: Plasmids and cloning procedures. The HIF-1α bioluminescence reporter (ODD-luc) construct was created by fusing PCR product of ODD domain of HIF-1α (GENBANK® Accession No. U59496) to the 5′ end of firefly luciferase reporter gene. Along with this construct, a luciferase expression vector in which luciferase gene was driven by the CMV promoter was used as a control. […] ODD fragments with or without the mutation were cloned into pCMV-3Tag-4B Epitope Tagging Mammalian Expression vector (Stratagene, La Jolla, Calif., United States of America). The full length mouse VHL gene (GENBANK® Accession No. S76748) was cloned form mouse tissue and tagged with HA tag by PCR. All constructs were sequence-verified.
Imaging luciferase activity.
(§1) Animal experiments. […] Drinking water was renewed daily until animal sacrifice.

[5] = test system: 4T1 (murine mammary adenocarcinoma); test: Tumor growth delay with radiotherapy, 4T1 tumors; type: in vivo; conditions: syngeneic mice, 3 fractions of 6 Gy every other day, L-NAME in drinking water
Excerpt: as §1
(§2) Statistics. Student's t test, one-way and two-way ANOVA were used where indicated. In growth delay experiments, the numbers of days for tumors to reach 5× their initial volume were used for comparing different treatment groups.

[6] = test system: B16F10 (murine melanoma); test: Tumor growth delay with radiotherapy, B16F10 tumors; type: in vivo; conditions: syngeneic C57BL/6 mice, 3 fractions of 6 Gy every other day, L-NAME in drinking water
Excerpt: as §1, §2

[Cl-].[Cl-].[Co+2] [CoCl2] was tested, and the “luminescence from ODD-luc reporter gene expression” value [1] was “rose significantly”.

With CC1(C)N([O])C(c2ccc(C(=O)[O-])cc2)=[N+]([O-])C1(C)C.[K+] [carboxy-PTIO, potassium 2-(4-carboxyphenyl)-4,4,5,5-tetramethylimidazoline-1-oxyl-3-oxide] the “suppression of GSNO-induced HIF-1α activation (ODD-luc)” value [1] was “effectively suppressed HIF-1α activation by GSNO”.

With carrageenan the “radiation-induced ODD-luc activation after macrophage depletion” value [2] was “significant reduction in radiation-induced ODD-luc activation”.

CC(C)C[C@@H](C=O)NC(=O)[C@H](CC(C)C)NC(=O)[C@H](CC(C)C)NC(=O)OCc1ccccc1 [MG132] (Cbz-Leu-Leu-Leu-aldehyde) was tested, and the “luminescence from ODD-luc reporter gene expression” value ([1]; CoCl2 240 μM for 12 hrs, MG132 10 μM for 12 hrs, versus background) was “rose significantly”.

In the case of COC(=O)[C@@H](N)CCCNC(=N)N[N+](=O)[O-] [L-NAME, Nω-nitro-L-arginine methyl ester], the “tumor vasculature (CD31+ vascular density), L-NAME with radiotherapy” value [3] is reported as “significantly reduced tumor vasculature”, the “activity of constitutively expressed luciferase (CMV-luc control)” value [4] is reported as “did not influence the activity of constitutively expressed luciferase activity” and the “tumor growth delay, L-NAME with radiotherapy” value [5] is reported as “significantly enhanced the therapeutic efficacy of radiotherapy”. For the same compound, the “tumor growth delay, L-NAME with radiotherapy” value [6] was “significantly enhanced the therapeutic efficacy of radiotherapy”.

Reference: patent US8968702B2, “Inhibition of HIF-1 activation for anti-tumor and anti-inflammatory responses” (Duke University, priority 2006, dated 2015)
